Data published in patent US10392368B2, “Pyrazolo and triazolo bicyclic compounds as JAK kinase inhibitors” (THERAVANCE BIOPHARMA R&D IP, LLC, priority 2017, dated 2019).

Legend:
JAK3 = molecular target: T1, JAK3 (Homo sapiens, UniProt P52333); assay: Biochemical JAK3 kinase assay (LanthaScreen); parameters: GST; purchased Life Technologies; conditions: for JAK3 (pKi)-JAK1 (pKi): selectivity: difference of pKi JAK3 and pKi JAK1; for Ki: read-out: JAK 3 (pKi) (converted)
T1 sequence (P52333 1-1124): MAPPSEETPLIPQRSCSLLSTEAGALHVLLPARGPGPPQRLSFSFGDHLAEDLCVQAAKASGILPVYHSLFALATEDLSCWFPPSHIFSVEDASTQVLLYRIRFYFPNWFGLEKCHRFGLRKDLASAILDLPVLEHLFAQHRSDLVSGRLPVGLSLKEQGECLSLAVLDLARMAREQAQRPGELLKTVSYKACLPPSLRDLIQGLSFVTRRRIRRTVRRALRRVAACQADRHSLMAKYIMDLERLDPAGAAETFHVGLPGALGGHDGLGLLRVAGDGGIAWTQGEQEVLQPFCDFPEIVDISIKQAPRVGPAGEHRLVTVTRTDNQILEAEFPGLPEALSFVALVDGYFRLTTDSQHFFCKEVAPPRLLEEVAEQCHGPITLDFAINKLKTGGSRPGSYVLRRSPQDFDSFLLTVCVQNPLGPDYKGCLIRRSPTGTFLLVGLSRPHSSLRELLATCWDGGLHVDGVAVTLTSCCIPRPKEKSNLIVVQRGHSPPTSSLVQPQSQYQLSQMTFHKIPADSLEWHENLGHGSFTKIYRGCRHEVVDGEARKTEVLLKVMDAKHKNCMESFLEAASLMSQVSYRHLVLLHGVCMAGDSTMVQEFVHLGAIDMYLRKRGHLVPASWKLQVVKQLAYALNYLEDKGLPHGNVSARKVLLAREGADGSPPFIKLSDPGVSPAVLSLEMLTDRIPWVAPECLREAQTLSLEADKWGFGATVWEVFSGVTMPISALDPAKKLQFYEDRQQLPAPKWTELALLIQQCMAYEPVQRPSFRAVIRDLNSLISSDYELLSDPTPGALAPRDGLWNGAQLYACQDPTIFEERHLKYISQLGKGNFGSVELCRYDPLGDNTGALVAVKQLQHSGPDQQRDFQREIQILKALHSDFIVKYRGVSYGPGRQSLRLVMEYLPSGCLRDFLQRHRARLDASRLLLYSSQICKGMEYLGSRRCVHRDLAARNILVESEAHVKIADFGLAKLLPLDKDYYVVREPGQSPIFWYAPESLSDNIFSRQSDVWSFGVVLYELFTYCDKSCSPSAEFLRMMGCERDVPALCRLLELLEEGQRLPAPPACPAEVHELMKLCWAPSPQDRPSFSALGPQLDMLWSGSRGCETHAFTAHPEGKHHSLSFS
In short: (§1)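 GST-tagged JAK enzyme and GFP-STAT1 peptide preincubated with compound 1 h, then ATP added; 1 h kinase reaction at ambient temperature, pH 7.5 HEPES/MgCl2 buffer, 1% DMSO. Tb-anti-pSTAT1 (pTyr701) TR-FRET, 520/495 nm ratio; IC50 from 4-parameter fit, converted to pKi via Cheng-Prusoff.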

[1] = tested on: IL-2 stimulated pSTAT5 in Tall-1 T cells; assay: Cellular JAK3 potency assay: inhibition of IL-2 stimulated pSTAT5 in Tall-1 T cells; type: cell-based, human; conditions: for IC50: Homo sapiens, TALL-1, IL-2 stimulated pSTAT5 in Tall-1 T cells, read-out: Tall-1 (pIC50) (converted)
In short: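 Tall-1 human T cells were preincubated with compound for 1 h at 37° C, then stimulated with IL-2 (300 ng/ml final) for 30 min. STAT5 phosphorylation in lysates was read by AlphaLisa bead emission, and IC50 from inhibition curves is given as pIC50 (mean±SD).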

JAK2 = molecular target: T2, JAK2 (Homo sapiens, UniProt O60674); assay: Biochemical JAK2 kinase assay (LanthaScreen); conditions: for Ki: read-out: JAK 2 (pKi) (converted)
T2 construct: GST; purchased Life Technologies
Experimental: (§2) A panel of four LanthaScreen JAK biochemical assays (JAK1, 2, 3 and Tyk2) were carried in a common kinase reaction buffer (50 mM HEPES, pH 7.5, 0.01% Brij-35, 10 mM MgCl2, and 1 mM EGTA). Recombinant GST-tagged JAK enzymes and a GFP-tagged STAT1 peptide substrate were obtained from Life Technologies.
(§3) Serially or discretely diluted compounds were pre-incubated with each of the four JAK enzymes and the substrate in white 384-well microplates (Corning) at ambient temperature for 1 h. ATP was subsequently added to initiate the kinase reactions in 10 μL total volume, with 1% DMSO. […] Kinase reactions were allowed to proceed for 1 hour at ambient temperature before a 10 μL preparation of EDTA (10 mM final concentration) and Tb-anti-pSTAT1 (pTyr701) antibody (Life Technologies, 2 nM final concentration) in TR-FRET dilution buffer (Life Technologies) was added. The plates were allowed to incubate at ambient temperature for 1 h before being read on the EnVision reader (Perkin Elmer).
(§4) For dose-response analysis, percent inhibition data were plotted vs. compound concentrations, and IC50 values were determined from a 4-parameter robust fit model with the Prism software (GraphPad Software). Results were expressed as pIC50 (negative logarithm of IC50) and subsequently converted to pKi (negative logarithm of dissociation constant, Ki) using the Cheng-Prusoff equation.

Tyk2 = molecular target: T3, Tyk2 (Homo sapiens, UniProt P29597); assay: Biochemical Tyk2 kinase assay (LanthaScreen); conditions: for Ki: read-out: Tyk 2 (pKi) (converted)
T3 construct: GST; purchased Life Technologies
Experimental: as §2
as §3, with “Elmer). Emission ratio signals (520 nm/495 nm) were recorded and utilized to calculate the percent inhibition values based on DMSO and background controls.” for “Elmer).”
as §4

JAK1 = molecular target: T4, JAK1 (Homo sapiens, UniProt P23458); assay: Biochemical JAK1 kinase assay (LanthaScreen); conditions: for Ki: read-out: JAK 1 (pKi) (converted)
T4 construct: GST; purchased Life Technologies
In short: as §1

T4 sequence (P23458 whole entry): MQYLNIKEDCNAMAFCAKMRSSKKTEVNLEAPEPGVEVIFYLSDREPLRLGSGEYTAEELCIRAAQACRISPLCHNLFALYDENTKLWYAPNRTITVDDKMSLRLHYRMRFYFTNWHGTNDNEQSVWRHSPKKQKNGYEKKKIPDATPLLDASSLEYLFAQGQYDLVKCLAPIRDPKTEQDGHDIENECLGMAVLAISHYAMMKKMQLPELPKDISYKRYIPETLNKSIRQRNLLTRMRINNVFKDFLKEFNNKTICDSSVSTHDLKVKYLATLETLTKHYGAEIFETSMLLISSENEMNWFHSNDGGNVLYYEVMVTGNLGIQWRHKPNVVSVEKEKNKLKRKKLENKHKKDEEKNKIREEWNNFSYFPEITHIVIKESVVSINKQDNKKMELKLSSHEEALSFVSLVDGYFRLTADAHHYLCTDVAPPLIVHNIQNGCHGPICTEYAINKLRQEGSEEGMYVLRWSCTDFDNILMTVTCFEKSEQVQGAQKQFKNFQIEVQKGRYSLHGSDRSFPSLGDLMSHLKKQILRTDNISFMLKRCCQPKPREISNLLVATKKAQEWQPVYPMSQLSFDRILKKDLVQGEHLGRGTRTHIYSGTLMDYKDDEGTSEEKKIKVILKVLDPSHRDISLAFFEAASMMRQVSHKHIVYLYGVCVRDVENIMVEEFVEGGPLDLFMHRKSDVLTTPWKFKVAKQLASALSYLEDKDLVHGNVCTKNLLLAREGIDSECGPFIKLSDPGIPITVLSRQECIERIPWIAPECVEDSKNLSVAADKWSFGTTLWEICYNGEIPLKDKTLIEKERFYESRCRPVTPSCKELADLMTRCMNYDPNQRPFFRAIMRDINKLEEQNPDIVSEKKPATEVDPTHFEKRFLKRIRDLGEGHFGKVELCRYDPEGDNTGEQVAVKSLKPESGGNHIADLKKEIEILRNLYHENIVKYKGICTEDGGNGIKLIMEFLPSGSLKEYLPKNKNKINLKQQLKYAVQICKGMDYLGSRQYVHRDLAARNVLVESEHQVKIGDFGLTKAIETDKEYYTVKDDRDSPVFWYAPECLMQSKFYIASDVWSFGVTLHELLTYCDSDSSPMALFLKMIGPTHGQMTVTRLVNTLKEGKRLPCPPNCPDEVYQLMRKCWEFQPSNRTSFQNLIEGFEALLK
T3 sequence (P29597 whole entry): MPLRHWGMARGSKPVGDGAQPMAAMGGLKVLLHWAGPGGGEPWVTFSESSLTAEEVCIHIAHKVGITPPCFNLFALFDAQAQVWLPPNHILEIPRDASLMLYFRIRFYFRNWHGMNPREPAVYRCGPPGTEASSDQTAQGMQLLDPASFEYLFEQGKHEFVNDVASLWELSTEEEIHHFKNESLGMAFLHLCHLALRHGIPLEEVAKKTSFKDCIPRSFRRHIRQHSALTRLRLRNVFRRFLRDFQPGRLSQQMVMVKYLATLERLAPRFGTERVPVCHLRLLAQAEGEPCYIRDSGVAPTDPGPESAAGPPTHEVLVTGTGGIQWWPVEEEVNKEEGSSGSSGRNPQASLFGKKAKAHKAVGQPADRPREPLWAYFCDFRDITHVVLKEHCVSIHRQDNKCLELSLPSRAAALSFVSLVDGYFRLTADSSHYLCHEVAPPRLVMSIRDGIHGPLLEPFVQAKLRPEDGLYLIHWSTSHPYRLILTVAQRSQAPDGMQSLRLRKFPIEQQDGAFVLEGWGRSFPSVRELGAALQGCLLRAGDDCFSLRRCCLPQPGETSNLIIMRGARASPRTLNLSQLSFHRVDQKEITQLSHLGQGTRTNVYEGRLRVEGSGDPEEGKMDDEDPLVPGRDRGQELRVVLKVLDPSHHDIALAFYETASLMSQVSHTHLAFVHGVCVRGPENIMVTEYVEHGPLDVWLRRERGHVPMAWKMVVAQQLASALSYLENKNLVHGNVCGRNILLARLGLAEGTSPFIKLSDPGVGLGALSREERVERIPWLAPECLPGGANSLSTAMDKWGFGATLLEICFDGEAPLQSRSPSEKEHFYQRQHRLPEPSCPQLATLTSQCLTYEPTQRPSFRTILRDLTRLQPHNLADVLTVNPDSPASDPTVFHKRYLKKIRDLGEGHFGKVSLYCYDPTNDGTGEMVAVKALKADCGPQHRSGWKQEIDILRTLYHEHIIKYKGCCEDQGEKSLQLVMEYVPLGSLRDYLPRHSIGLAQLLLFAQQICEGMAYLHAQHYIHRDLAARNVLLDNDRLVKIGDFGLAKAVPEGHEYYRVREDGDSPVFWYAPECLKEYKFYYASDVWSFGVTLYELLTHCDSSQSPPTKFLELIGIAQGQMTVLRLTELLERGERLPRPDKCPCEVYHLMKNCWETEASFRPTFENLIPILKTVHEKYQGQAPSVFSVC
T2 sequence (O60674 whole entry): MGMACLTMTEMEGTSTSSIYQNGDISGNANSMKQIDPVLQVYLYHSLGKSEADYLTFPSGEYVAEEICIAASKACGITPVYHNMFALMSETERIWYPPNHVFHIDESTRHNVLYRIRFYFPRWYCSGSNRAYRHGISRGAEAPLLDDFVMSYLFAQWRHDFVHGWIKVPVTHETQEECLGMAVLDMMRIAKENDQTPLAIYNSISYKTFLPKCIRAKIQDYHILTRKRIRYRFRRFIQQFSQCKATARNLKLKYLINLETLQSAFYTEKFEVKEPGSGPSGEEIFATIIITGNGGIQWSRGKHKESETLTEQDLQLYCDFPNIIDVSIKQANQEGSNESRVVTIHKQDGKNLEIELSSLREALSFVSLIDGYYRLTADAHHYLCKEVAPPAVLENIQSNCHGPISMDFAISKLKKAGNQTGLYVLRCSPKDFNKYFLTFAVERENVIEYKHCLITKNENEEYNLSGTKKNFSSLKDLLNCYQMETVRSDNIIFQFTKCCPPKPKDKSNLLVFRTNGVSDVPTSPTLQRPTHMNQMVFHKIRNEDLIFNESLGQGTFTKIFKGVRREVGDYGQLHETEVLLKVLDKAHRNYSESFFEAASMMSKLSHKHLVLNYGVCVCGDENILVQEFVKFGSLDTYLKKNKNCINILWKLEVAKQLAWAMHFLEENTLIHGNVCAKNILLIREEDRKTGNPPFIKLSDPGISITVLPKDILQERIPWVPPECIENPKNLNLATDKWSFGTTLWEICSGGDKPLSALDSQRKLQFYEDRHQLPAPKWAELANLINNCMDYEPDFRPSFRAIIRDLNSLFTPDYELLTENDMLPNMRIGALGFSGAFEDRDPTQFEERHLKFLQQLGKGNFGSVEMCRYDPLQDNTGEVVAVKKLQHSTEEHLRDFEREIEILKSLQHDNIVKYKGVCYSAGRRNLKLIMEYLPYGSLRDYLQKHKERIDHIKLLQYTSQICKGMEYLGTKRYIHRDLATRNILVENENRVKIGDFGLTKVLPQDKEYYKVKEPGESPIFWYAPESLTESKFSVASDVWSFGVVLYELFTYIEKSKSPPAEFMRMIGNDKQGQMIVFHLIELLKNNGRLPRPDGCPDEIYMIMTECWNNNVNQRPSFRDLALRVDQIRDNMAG

| SMILES | JAK 3 (pKi) (JAK3) | JAK3 (pKi)-JAK1 (pKi) (JAK3) | Tall-1 (pIC50) ([1]; IL-2 stimulated pSTAT5 in Tall-1 T cells) | JAK 2 (pKi) (JAK2) | Tyk 2 (pKi) (Tyk2) | JAK 1 (pKi) (JAK1) | Ki (JAK3) | IC50 [1] | Ki (JAK2) | Ki (Tyk2) | Ki (JAK1) |
| --- | --- | --- | --- | --- | --- | --- | --- | --- | --- | --- | --- |
| C=CC(=O)N1CC(Oc2nc(-c3ccc(O)cc3)nc3[nH]ncc23)CC1C (stereo not drawn) [Compound 1-24] | B (a pKi value between 9 and 10 (Ki between 1 nM and 0.1 nM)) | A (a value of 3 or above) | C (a pIC50 value between 6 and 6.7 (IC50 between 1 μM and 200 nM)) | E (a pKi value of 7 or below (Ki of 100 nM or above)) | E (a pKi value of 7 or below (Ki of 100 nM or above)) | E (a pKi value of 7 or below (Ki of 100 nM or above)) | – | – | – | – | – |
| C=CC(=O)N1C[C@@H](Oc2cc(-c3ccc(O)cc3)nc3[nH]ncc23)C[C@H]1C [Compound 1-26] | – | A (a value of 3 or above) | – | – | – | – | < 0.1 nM | 31.6 to 200 nM | > 100 nM | > 100 nM | > 100 nM |
| C=CC(=O)N1CC[C@H](Oc2nc(-c3ccc(O)c(F)c3)cc3[nH]ncc23)C1 [Compound 1-27] | – | A (a value of 3 or above) | – | – | – | – | < 0.1 nM | 31.6 to 200 nM | 10 to 100 nM | > 100 nM | > 100 nM |
| Cc1cc(O)c(F)cc1-c1cc(O[C@H]2CCN(C(=O)/C=C/CN(C)C)C2)c2cn[nH]c2c1 [Compound 1-29] | – | B (a value of 2.3 to 3) | – | – | – | – | 0.1 to 1 nM | 31.6 to 200 nM | 10 to 100 nM | > 100 nM | 10 to 100 nM |
| C=CC(=O)N1CC[C@H](Oc2cc(-c3ccc(O)cc3)nc3[nH]nc(C)c23)C1 [Compound 1-31] | – | A (a value of 3 or above) | – | – | – | – | < 0.1 nM | 31.6 to 200 nM | > 100 nM | > 100 nM | > 100 nM |
| C=CC(=O)N1CC[C@H](Oc2cc(-c3ccc(O)c(F)c3)nc3[nH]nc(C)c23)C1 [Compound 1-33] | – | A (a value of 3 or above) | – | – | – | – | 0.1 to 1 nM | 31.6 to 200 nM | > 100 nM | > 100 nM | > 100 nM |
| C=CC(=O)N1CC[C@H](Oc2nc(-c3ccc(O)cc3)cc3[nH]nc(C)c23)C1 [Compound 1-34] | – | A (a value of 3 or above) | – | – | – | – | 0.1 to 1 nM | < 31.6 nM | 10 to 100 nM | > 100 nM | > 100 nM |
| C=CC(=O)N1CC[C@H](Oc2nc(-c3ccc(O)c(F)c3)cc3[nH]nc(C)c23)C1 [Compound 1-36] | – | B (a value of 2.3 to 3) | – | – | – | – | 0.1 to 1 nM | < 31.6 nM | 10 to 100 nM | > 100 nM | 10 to 100 nM |
| C=CC(=O)N1CC[C@H](Oc2nc(-c3ccc(O)c(F)c3)nc3[nH]nc(C)c23)C1 [Compound 1-38] | – | A (a value of 3 or above) | – | – | – | – | < 0.1 nM | 31.6 to 200 nM | > 100 nM | > 100 nM | > 100 nM |
| C=CC(=O)N1CC[C@H](Oc2cc(-c3ccc(O)c(F)c3)cc3[nH]nc(SC)c23)C1 [Compound 1-40] | – | B (a value of 2.3 to 3) | – | – | – | – | 0.1 to 1 nM | 31.6 to 200 nM | > 100 nM | > 100 nM | > 100 nM |
